Source: US4601984A, “Process to produce antibiotics X-14873 A, G and H” (Hoffmann-La Roche Inc., priority 1983, dated 1986)
Values after ≈ are worked out from the molar mass of the structure shown.

Columns and labels:
[1] = system: Bacillus subtilis; assay: Minimum Inhibitory Concentration; format: cell-based; conditions: NRRL558; Bacillus subtilis NRRL 558
[2] = Oral toxicity (LD50) in mice, 24 hours; conditions: mouse, in vivo
[3] = system: Mycobacterium phlei; assay: Minimum Inhibitory Concentration; format: cell-based; conditions: Mycolicibacterium phlei, ATCC355; Mycobacterium phlei ATCC 355
[4] = system: Bacillus sp. TA; assay: Minimum Inhibitory Concentration; format: cell-based; conditions: ATCC27860; Bacillus sp. TA ATCC 27860
[5] = system: Bacillus sp. E; assay: Minimum Inhibitory Concentration; format: cell-based; conditions: ATCC27359; Bacillus sp. E ATCC 27359
[6] = system: Streptomyces cellulosae; assay: Minimum Inhibitory Concentration; format: cell-based; conditions: ATCC3313; Streptomyces cellulosae ATCC 3313
[7] = system: Saccharomyces cerevisiae; assay: Minimum Inhibitory Concentration; format: cell-based; conditions: ATCC4226; Saccharomyces cerevisiae ATCC 4226
[8] = system: Bacillus megaterium; assay: Minimum Inhibitory Concentration; format: cell-based; conditions: Priestia megaterium, ATCC8011; Bacillus megaterium ATCC 8011
[9] = system: Staphylococcus aureus; assay: Minimum Inhibitory Concentration; format: cell-based; conditions: ATCC6538P; Staphylococcus aureus ATCC 6538P
[10] = system: gram-positive bacteria; assay: Activity against gram-positive bacteria, summary; format: cell-based
[11] = system: Sarcina lutea; assay: Minimum Inhibitory Concentration; format: cell-based; conditions: Micrococcus luteus, ATCC9341; Sarcina lutea ATCC 9341
[12] = system: Candida albicans; assay: Minimum Inhibitory Concentration; format: cell-based; conditions: NRRL477; Candida albicans NRRL 477
[13] = system: Penicillum digitatum; assay: Minimum Inhibitory Concentration; format: cell-based; conditions: Penicillum digitatum ATCC 26821
[14] = system: Streptococcus faecium; assay: Minimum Inhibitory Concentration; format: cell-based; conditions: Enterococcus faecium, ATCC8043; Streptococcus faecium ATCC 8043
[15] = system: Paecilomyces varioti; assay: Minimum Inhibitory Concentration; format: cell-based; conditions: ATCC25820; Paecilomyces varioti ATCC 25820
[16] = system: volatile fatty acids produced in the rumen; assay: Ratio of volatile fatty acids produced in the rumen (GLC); format: in vivo, steer; conditions: for VFA Ratio: C3/(C2 + nC4): ± one standard deviation, 3 animals
[17] = system: Strain X-14873; assay: Streptomycin sensitivity of the producing strain (disc); format: cell-based, Streptomyces sp. X-14873; conditions: Streptomyces, X14873; 10 mcg in 1/4" disc
[18] = system: Salmonella typhi P58A; assay: Minimum Inhibitory Concentration; format: cell-based; conditions: Salmonella enterica, read-out: Minimum Inhibitory Concentration
[19] = system: Enterobacter cloacae 5699; assay: Minimum Inhibitory Concentration; format: cell-based
[20] = system: E. tenella; assay: In vitro coccidiostatic activity; format: cell-based; conditions: Eimeria tenella, read-out: in vitro activity against E. tenella, active concentration
[21] = system: Serratia marcescens SM; assay: Minimum Inhibitory Concentration; format: cell-based
[22] = system: Proteus mirabilis 190; assay: Minimum Inhibitory Concentration; format: cell-based
[23] = system: Klebsiella pneumoniae A; assay: Minimum Inhibitory Concentration; format: cell-based
[24] = system: Treponema hyodysenteriae; assay: Minimum inhibitory concentration against the agent of swine dysentery; format: cell-based; conditions: Brachyspira hyodysenteriae
[25] = system: Trichophyton mentagrophytes; assay: Minimum Inhibitory Concentration; format: cell-based
[26] = system: Microsporum audouini; assay: Minimum Inhibitory Concentration; format: cell-based
[27] = system: Escherichia coli 257; assay: Minimum Inhibitory Concentration; format: cell-based
[28] = system: ruminants; assay: Growth promotion and feed utilization in ruminants; format: in vivo, e.g. cattle
[29] = system: Pseudomonas aeruginosa B; assay: Minimum Inhibitory Concentration; format: cell-based
[30] = system: Staphylococcus aureus Smith; assay: Minimum Inhibitory Concentration; format: cell-based
[31] = Medication day 2, 30 g/ton in ration, nonmedicated 0.211 ± 0.019
[32] = Medication day 5, 30 g/ton in ration, nonmedicated 0.248 ± 0.058
[33] = Medication day 7, 30 g/ton in ration, nonmedicated 0.325 ± 0.166
[34] = Medication day 9, 30 g/ton in ration, nonmedicated 0.338 ± 0.164
[35] = Medication day 12, 30 g/ton in ration, nonmedicated 0.293 ± 0.148
[36] = Pre-medication day 1 (baseline)
[37] = Pre-medication day 3 (baseline)
[38] = Pre-medication day 5 (baseline)
[39] = Pre-medication day 8 (baseline)
[40] = Pre-medication day 10 (baseline)

Compound	MIC [1] [µg/mL]	LD50 at 24 h [2] [mg/kg]	MIC [3] [µg/mL]	MIC [4] [µg/mL]	MIC [5] [µg/mL]	MIC [6] [µg/mL]	MIC [7] [µg/mL]	MIC [8] [µg/mL]	MIC [9] [µg/mL]	effect on growth of gram-positive bacteria [10]	MIC [11] [µg/mL]	MIC [12] [µg/mL]	MIC [13] [µg/mL]	MIC [14] [µg/mL]	MIC [15] [µg/mL]	VFA Ratio: C3/(C2 + nC4) [16, 31]	VFA Ratio: C3/(C2 + nC4) [16, 32]	VFA Ratio: C3/(C2 + nC4) [16, 33]	VFA Ratio: C3/(C2 + nC4) [16, 34]	VFA Ratio: C3/(C2 + nC4) [16, 35]	other results
CCC(C(=O)C(C)C(O)C(C)C1OC(C)(O)C(CC)C(O)C1C)C1OC(C)(C2(O)OC(CC)(C(O)CC)CC2C)CC1C (stereo not drawn) [Antibiotic X-14873H]	16 (≈ 26 µM)	4000	> 1000	8 (≈ 13 µM)	2 (≈ 3.25 µM)	> 1000	> 1000	4 (≈ 6.51 µM)	8 (≈ 13 µM)	adversely affecting the growth of certain gram-positive bacteria	16 (≈ 26 µM)	> 1000	> 1000	2 (≈ 3.25 µM)	> 1000						
CC[C@@H](C(=O)[C@@H](C)[C@@H](O)[C@H](C)CCc1ccc(C)c(O)c1C(=O)O)[C@H]1O[C@](CC)([C@H]2CC[C@](O)(CC)[C@H](C)O2)C[C@@H]1C [Lasalocid, lasalocid, reference compound]																0.376 ± 0.109	0.390 ± 0.073	0.373 ± 0.015	0.381 ± 0.064	0.372 ± 0.056	VFA Ratio: C3/(C2 + nC4) [16, 36]: 0.229 ± 0.013; VFA Ratio: C3/(C2 + nC4) [16, 37]: 0.255 ± 0.051; VFA Ratio: C3/(C2 + nC4) [16, 38]: 0.244 ± 0.060; VFA Ratio: C3/(C2 + nC4) [16, 39]: 0.236 ± 0.041; VFA Ratio: C3/(C2 + nC4) [16, 40]: 0.224 ± 0.011
CCC(C(=O)C(C)C(O)C(C)C1OC(C)(O)C(CC)C(O)C1C)C1OC(C)(C23OC(CC)C(CC)(CC2C)O3)CC1C (stereo not drawn) [Antibiotic X-14873G]	> 1000	4000	> 1000	> 1000	8 (≈ 13.4 µM)	> 1000	> 1000	> 1000	> 1000	adversely affecting the growth of certain gram-positive bacteria	> 1000	> 1000	> 1000	63 (≈ 106 µM)	> 1000						
[H]/N=C(/N)N[C@H]1[C@H](O)[C@@H](O)[C@H](O[C@@H]2O[C@@H](C)[C@](O)(C=O)[C@H]2O[C@@H]2O[C@@H](CO)[C@H](O)[C@@H](O)[C@@H]2NC)[C@@H](N/C(N)=N\[H])[C@@H]1O [Streptomycin]																					zone of inhibition at 10 µg/disc [17]: 13 mm
CCC(C(=O)C(C)C(O)C(C)C1OC(O)(CC(=O)O)C(CC)C(O)C1C)C1OC(C)(C2(O)OC(CC)(C(O)CC)CC2C)CC1C (stereo not drawn) [Antibiotic X-14873A]	3 (≈ 4.55 µM)	120	3 (≈ 4.55 µM)	3 (≈ 4.55 µM)	0.8 (≈ 1.21 µM)	12.5 (≈ 19 µM)	500 (≈ 759 µM)	3 (≈ 4.55 µM)	6.3 (≈ 9.56 µM)	adversely affecting the growth of certain gram-positive bacteria	3 (≈ 4.55 µM)	62.5 (≈ 94.9 µM)	500 (≈ 759 µM)	0.1 (≈ 0.152 µM)	125 (≈ 190 µM)	0.445 ± 0.075	0.584 ± 0.328	0.679 ± 0.448	0.642 ± 0.387	0.495 ± 0.242	MIC [18]: 128 µg/mL (≈ 194 µM); MIC [19]: 128 µg/mL (≈ 194 µM); minimal effective concentration [20]: 200 µg/mL; MIC [21]: 128 µg/mL (≈ 194 µM); MIC [22]: 128 µg/mL (≈ 194 µM); MIC [23]: 128 µg/mL (≈ 194 µM); MIC [24]: 5 µg/mL (≈ 7.59 µM); MIC [25]: 100 µg/mL (≈ 152 µM); MIC [26]: 100 µg/mL (≈ 152 µM); MIC [27]: 128 µg/mL (≈ 194 µM); efficiency of feed utilization in ruminant animals ([28]; administered orally): increases the efficiency of feed utilization; activity as a growth promotant in ruminants ([28]; ruminants, e.g. cattle): exhibit activity as a growth promotant in ruminants; MIC [29]: 128 µg/mL (≈ 194 µM); increase over control of the volatile fatty acid ratio vs lasalocid ([16]; 30 g/ton, compared with lasalocid): greater increase over control of the volitile fatty acid ratio than lasalocid; VFA Ratio: C3/(C2 + nC4) [16, 36]: 0.213 ± 0.016; VFA Ratio: C3/(C2 + nC4) [16, 37]: 0.235 ± 0.036; VFA Ratio: C3/(C2 + nC4) [16, 38]: 0.234 ± 0.042; VFA Ratio: C3/(C2 + nC4) [16, 39]: 0.245 ± 0.046; VFA Ratio: C3/(C2 + nC4) [16, 40]: 0.216 ± 0.038; MIC [30]: 64 µg/mL (≈ 97.1 µM)
